Experimental data from BindingDB's records for doi:10.1016/j.chembiol.2006.05.015 (The Scripps Research Institute, 2006).

Legend:
[1] = target: T1, Tyrosine-protein kinase ABL1 [1-999,Q252H] (Homo sapiens, UniProt P00519, Q252H); experiment: Biochemcial Assay; details: pH 7.5
T1 construct: 1-999
Source text: An in vitro kinase assay using dephophorylated conformationally inactive Abl kinase was obtained by treating pure recombinant Abl with Yersinia […] phosphatase from Calbiochem.

[2] = target: T1, Tyrosine-protein kinase ABL1 [1-999,Q252H]; experiment: Biochemcial Assay; details: pH 7.5; remark: listed apart in the source
Source text: An in vitro kinase assay using phosphorylated recombinant human Abl kinase domains to phosphorylate a peptide substrate.

SMILES	IC50 [1] [µM]	IC50 [2] [µM]
Cc1ccc(N(C)C(=O)c2cccc(C(F)(F)F)c2)cc1N1Cc2cnc(N)nc2N(C)C1=O [Type II inhibitor, 15]	> 5	> 5
O=[N+]([O-])c1ccc(Oc2ncnc3[nH]ccc23)cc1 [Type I progenitor, 4]	> 5	> 5
Cc1ccc(Cl)cc1Nc1nccc(-c2cccnc2)n1 [Type I progenitor, 1]	> 5	> 5
O=C(Nc1ccc(N2CCOCC2)cc1)c1cc2cnc3[nH]ccc3c2s1 [Type I progenitor, 7]	> 5	> 5
CC(O)c1cccc(Nc2ncc3cc(-c4cc(N(C)C(=O)c5cccc(C(F)(F)F)c5)ccc4Cl)c(=O)n(C)c3n2)c1 (stereo unspecified) [Type II inhibitor, 13]	0.0091	0.15
CC(O)c1cccc(Nc2ncc3cc(-c4cc(NC(=O)c5cccc(C(F)(F)F)c5)ccc4Cl)c(=O)n(C)c3n2)c1 (stereo unspecified) [Type II inhibitor, 12]	0.0272	0.0196
Cc1cc(NC(=O)c2cccc(C(F)(F)F)c2)ccc1NC(=O)c1cc2cnc3[nH]ccc3c2s1 [Type II inhibitor, 8]	0.154	> 5
CC(O)c1cccc(Nc2ncc3cc(-c4c(Cl)cccc4Cl)c(=O)n(C)c3n2)c1 (stereo unspecified) [Type I progenitor, 11]	0.0058	0.0057
Cc1ccc(NC(=O)c2cccc(C(F)(F)F)c2)cc1Nc1nccc(-c2cccnc2)n1 [Type II inhibitor, 2]	0.005	0.152
O=C(Nc1ccc(Oc2ncnc3[nH]ccc23)cc1)Nc1cccc(C(F)(F)F)c1 [Type II inhibitor, 5]	0.374	> 5
Cc1cc(N(C)C(=O)c2cccc(C(F)(F)F)c2)ccc1NC(=O)c1cc2cnc3[nH]ccc3c2s1 [Type II inhibitor, 10]	> 5	> 5
Cc1ccc(N(C)C(=O)c2cccc(C(F)(F)F)c2)cc1Nc1nccc(-c2cccnc2)n1 [Type II inhibitor, 3]	1.36	> 5
O=C(Cc1cccc(C(F)(F)F)c1)Nc1ccc(Oc2ncnc3[nH]ccc23)cc1 [Type II inhibitor, 6]	> 5	> 5
